pIC50, pKi: −log10 of the molar value.
Experiments:
[1] = target: T1, endogenous human UII receptor (Homo sapiens, UniProt Q9UKP6); assay: Human Radioligand Binding Assay ((^125I)-U-II binding to human skeletal muscle myoblasts)
T1 sequence (Q9UKP6 1-389): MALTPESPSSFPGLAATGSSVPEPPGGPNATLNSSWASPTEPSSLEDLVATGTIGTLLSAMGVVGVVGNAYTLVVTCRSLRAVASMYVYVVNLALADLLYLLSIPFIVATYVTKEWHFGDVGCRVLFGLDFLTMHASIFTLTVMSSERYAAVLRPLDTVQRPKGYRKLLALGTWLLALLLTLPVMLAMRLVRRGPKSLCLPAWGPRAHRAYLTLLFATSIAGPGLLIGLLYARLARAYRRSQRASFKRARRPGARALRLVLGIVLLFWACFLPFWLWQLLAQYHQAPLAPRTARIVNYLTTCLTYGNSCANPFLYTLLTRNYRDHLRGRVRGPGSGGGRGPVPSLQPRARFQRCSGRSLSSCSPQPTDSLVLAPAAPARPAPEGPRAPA

[2] = target: T2, rat GPR14 (U-II receptor) (Rattus norvegicus, UniProt P49684); assay: Rat UII Calcium Mobilization FLIPR Assay; format: cell-based; conditions: average value for the compound tested; read-out: Rat UII FLIPR Average IC50
T2 construct: expressed in transfected cells
T2 sequence (P49684 1-386): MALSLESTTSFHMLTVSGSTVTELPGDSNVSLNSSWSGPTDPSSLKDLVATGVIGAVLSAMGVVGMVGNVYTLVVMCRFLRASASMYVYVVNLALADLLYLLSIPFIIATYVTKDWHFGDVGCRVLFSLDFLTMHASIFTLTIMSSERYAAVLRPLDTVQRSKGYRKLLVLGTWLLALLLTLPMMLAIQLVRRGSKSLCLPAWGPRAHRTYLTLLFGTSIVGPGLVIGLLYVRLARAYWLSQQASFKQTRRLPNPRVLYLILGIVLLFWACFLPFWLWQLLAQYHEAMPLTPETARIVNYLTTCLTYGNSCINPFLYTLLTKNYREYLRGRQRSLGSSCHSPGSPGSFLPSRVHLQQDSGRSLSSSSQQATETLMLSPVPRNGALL
Procedure, shortened: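 Fluorescent calcium signals were recorded at room temperature (23° C) by FLIPR. Stable rat U-II receptor CHO lines had been dye-loaded for 1 h at 37° C in pH 7.4 HBSS containing 20 mM HEPES, 0.1% BSA and 2.5 mM probenecid.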

[3] = target: T3, Human UII receptor, 6D9 human rhabdomyosarcoma cells (Homo sapiens, UniProt Q9UKP6); assay: Human UII Calcium Mobilization Assay; format: cell-based; conditions: average value, FLIPR TETRA, read-out: Human UII Ca^+ Mobilization Average IC50
T3 construct: 6D9: isolated by dilution subcloning of RMS13 cells, ATCC® Number: CRL-2061; host or cells: 6D9 human rhabdomyosarcoma cells (subclone of RMS13)
T3 sequence (Q9UKP6 1-389): T1 sequence (Q9UKP6 1-389)
Procedure, shortened: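 FLIPR calcium responses were recorded for 4 minutes after room-temperature addition of test antagonist and U-II, in dye-loaded human 6D9 cells (37° C, 45 min; HBSS/HEPES with probenecid 1.25 mM). Compounds serially diluted in HBSS/HEPES, up to 0.1% DMSO; curves gave IC50 and EC50.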

Row | pKi [1] | pIC50 [2] | pIC50 [3] | Compound
1 | 7.02 | 7.82 | 6.30 | COc1ccc([C@@H](CCCNC(=O)c2cscn2)N2C(=O)c3cccc(N4CCN([C@H](C)c5ccccc5)CC4)c3C2=O)cc1OC [Cpd 163, (R)-thiazole-4-carboxylic acid (4-(3,4-dimethoxy-phenyl)-4-{1,3-dioxo-4-[4-(1R)-(1-phenyl-ethyl)-piperazin-1-yl]-1,3-dihydro-isoindol-2-yl}-butyl)-amide]
2 | 7.59 | 8.21 | 6.39 | COCC(=O)NCCC[C@H](c1ccc(OC)c(OC)c1)N1C(=O)c2cccc(N3CCN([C@H](C)c4ccccc4)CC3)c2C1=O [Cpd 175, (R)-N-(4-(3,4-dimethoxy-phenyl)-4-{1,3-dioxo-4-[4-(1R)-(1-phenyl-ethyl)-piperazin-1-yl]-1,3-dihydro-isoindol-2-yl}-butyl)-2-methoxy-acetamide]
3 | < 6.52 | 6.80 | 5.54 | CCN1CCN(c2cccc3c2C(=O)N([C@H](CCCOCc2c(F)cccc2F)c2ccc(OC)c(OC)c2)C3=O)CC1 [Cpd 227, (R)-2-[4-(2,6-difluoro-benzyloxy)-1-(3,4-dimethoxy-phenyl)-butyl]-4-(4-ethyl-piperazin-1-yl)-isoindole-1,3-dione]
4 | 7.51 | 8.08 | 6.39 | COc1ccc([C@@H](CCCNS(=O)(=O)c2cccs2)N2C(=O)c3cccc(N4CCN(Cc5ccoc5)CC4)c3C2=O)cc1OC [Cpd 170, (R)-thiophene-2-sulfonic acid {4-(3,4-dimethoxy-phenyl)-4-[4-(4-furan-3-ylmethyl-piperazin-1-yl)-1,3-dioxo-1,3-dihydro-isoindol-2-yl]-butyl}-amide]
5 | 7.03 | 8.15 | 5.96 | COCCC(=O)NCCC[C@H](c1ccc(OC)c(OC)c1)N1C(=O)c2cccc(N3CCN([C@H](C)c4ccccc4)CC3)c2C1=O [Cpd 177, (R)-N-(4-(3,4-dimethoxy-phenyl)-4-{1,3-dioxo-4-[4-(1R)-(1-phenyl-ethyl)-piperazin-1-yl]-1,3-dihydro-isoindol-2-yl}-butyl)-3-methoxy-propionamide]
6 | 7.59 | 7.96 | 6.66 | COc1ccc([C@@H](CCCNS(=O)(=O)c2cccs2)N2C(=O)c3cccc(N4CCN(Cc5ccsc5)CC4)c3C2=O)cc1OC [Cpd 172, (R)-thiophene-2-sulfonic acid {4-(3,4-dimethoxy-phenyl)-4-[1,3-dioxo-4-(4-thiophen-3-ylmethyl-piperazin-1-yl)-1,3-dihydro-isoindol-2-yl]-butyl}-amide]
7 | 7.00 | 7.80 | 6.48 | COc1ccc([C@@H](CCCNC(=O)c2conc2C)N2C(=O)c3cccc(N4CCN([C@H](C)c5ccccc5)CC4)c3C2=O)cc1OC [Cpd 158, (R)-3-methyl-isoxazole-4-carboxylic acid (4-(3,4-dimethoxy-phenyl)-4-{1,3-dioxo-4-[4-(1R)-(1-phenyl-ethyl)-piperazin-1-yl]-1,3-dihydro-isoindol-2-yl}-butyl)-amide]
8 | < 6.52 | 5.82 | < 5.00 | COc1cc(Br)c(CN2C(=O)c3cccc(N4CCN([C@H](C)c5ccccc5)CC4)c3C2=O)cc1OC [Cpd 225, 2-(2-bromo-4,5-dimethoxy-benzyl)-4-[4-(1R)-(1-phenyl-ethyl)-piperazin-1-yl]-isoindole-1,3-dione]
9 | 7.18 | 6.16 | 6.17 | CCN1CCN(c2cccc3c2C(=O)N([C@H](CCCO)c2ccc(OC)c(OC)c2)C3=O)CC1 [Cpd 206, (R)-2-[1-(3,4-dimethoxy-phenyl)-4-hydroxy-butyl]-4-(4-ethyl-piperazin-1-yl)-isoindole-1,3-dione]
10 | 6.92 | 7.80 | 6.12 | COc1ccc([C@@H](CCCNc2ncccn2)N2C(=O)c3cccc(N4CCN([C@H](C)c5ccccc5)CC4)c3C2=O)cc1OC [Cpd 145, (R)-2-[1-(3,4-dimethoxy-phenyl)-4-(pyrimidin-2-ylamino)-butyl]-4-[4-(1R)-(1-phenyl-ethyl)-piperazin-1-yl]-isoindole-1,3-dione]

Reference: patent US8193191B2, “Urotensin II receptor antagonists” (Janssen Pharmaceutica N.V., priority 2006, dated 2012)
